Experimental data reported in US20230060873A1, “COMPOUNDS AND METHODS FOR FORMING ION CHANNELS IN BIOLOGICAL MEMBRANES” (Washington University, priority 2021, published 2023).
In brackets after ≈: the same amount, converted by molar mass.

Assays:
[1] = Solubility in trifluoroethanol (TFE); assay type: physicochemical; conditions: trifluoroethanol stock solutions
Bacillus subtilis [2] = test: Toxicity (MIC) of dialkylated lariat ethers on B. subtilis; assay type: cell-based; conditions: B. subtilis 168 WT, 12 h, visual turbidity, read-out: minimum inhibitory concentration (MIC)
Experimental: The cyto-toxicity was determined by measuring the minimum inhibitory concentrations (MIC) for this series of dialkylated lariat ethers in the Gram-negative bacteria Escherichia coli, the Gram-positive bacteria Bacillus subtilis, and human embryonic kidney (HEK293T) cells.
On bacteria. XL1 blue strain Escherichia coli cells transformed with a pET28a plasmid (which contains a kanamycin resistance gene) were grown at 37° C. in 2 mL of LB medium (Miller's LB broth, Research Products International) supplemented with 50 μg/mL of kanamycin until the optical density (600 nm) reached 0.600. The starting density of bacteria in the remainder of the experiments was a 1/100 dilution of this bacterial density, which was split into 4 mL cultures. A series of 400, 100, 10 and 5 mM stock solutions of each dialkylated diaza(18-crown-6) compounds in trifluoroethanol (TFE) were diluted by adding to the 4 mL cultures until final concentrations of 400, 200, 100, 50, 20, 15, 10, 5, 4, 3, 2 and 1 μM were reached, with the final TFE concentration never >0.1% v/v. Negative controls in the presence of TFE 0.1% v/v or the absence of any treatment were done for each batch. The cultures were incubated at 37° C. with agitation for 12 h. Bacillus subtilis (168 WT) toxicity tests were carried out using an identical protocol, except for the addition of the antibiotic. […] Each compound was assayed a minimum of three times at each tested concentration.

B. subtilis membranes = test: DiSC3(5) depolarization assay, MAcBCE/MAkBCE; assay type: cell-based, Bacillus subtilis; conditions: 2 μM compound, 60 mM KCl, NaCl or NMDG-Cl; for change in DiSC3(5) fluorescence (membrane depolarization): 25° C, 10 minutes
Experimental: A 2 mL liquid culture of transformed B. subtilis cells was grown at 37° C. in LB medium supplemented with 5 μg/mL kanamycin until OD600=0.6 was reached. The cells were collected by centrifugation at 2000 rpm over 3 min. The bacteria were washed twice with an NMDG-MeSO3 solution (100 mM NMDG, 10 mM HEPES, pH adjusted to 7.4 with methane sulfonic acid). […] The working dye solution was a 200 μM solution of DiSC3(5) (3,3′-dipropylthiadicarbocyanine iodide; Tokyo Chemical Industry) in DMSO. A series of 2 M solutions of NMDG-Cl, NaCl and KCl were prepared containing 10 mM HEPES; the pH was adjusted to pH 7.4 with NMDG, NaOH or KOH, respectively, to avoid any pH changes after their addition. The experiment was initiated with 3 mL of NMDG-MeSO3 in a quartz cuvette, then 5 μL of the dye solution was added (timepoint t1, 50 sec) for a 0.3 μM final concentration by the end of experiment. This was followed by the addition of 100 μL of the B. subtilis suspension (timepoint t2, 100 sec). After 150 sec (timepoint t3, 250 sec), the fluorescence stabilized to a minimum intensity and 100 μL of the 2 M NMDG-Cl, NaCl or KCl solution was added to reach ˜60 mM final concentration of the salt. The final step was the addition 0.64 μL of a 10 mM stock solution of the desired MAcBCE or MAkBCE compound in TFE (timepoint t4, 400 sec), for a final concentration of 2 μM. Negative controls were performed by adding the same volume of pure TFE to the cuvette at timepoint t4. Fluorescence intensity was recorded each second using a Horiba Fluoromax 4 spectrometer (λexcitation=640 nm; λemission=670 nm). The solution inside the cuvette was vigorously mixed throughout the experiment by using a magnetic stirrer and the temperature was kept constant at 25° C. For purposes of normalization, the fluorescence intensity was divided by the fluorescence level just before timepoint t2.
To determine whether MAcBCE or MAkBCE compounds catalyse ion-selective flux, a set of highly bioactive members bearing ten-carbon chain lengths were tested for their ability to depolarize B. subtilis membranes using a test based on the fluorescent dye 3,3-dipropylthiadicarbocyanine (DiSC3(5)). This set of compounds were selected as four of the most toxic members of the MAcBCE and MAkBCE compound library (5-O-10, 5-A-10, 6-O-10, and 6-A-10; FIG. 3) belong to this group and all are soluble in TFE. The two non-toxic benzo(12-crown-4) scaffold members (4-O-10 and 4-A-10; FIG. 3) were used as controls.
FIGS. 4 and 5 show the time course of DiSC3(5) fluorescence due to the addition of 2 μM 6-A-10 (FIG. 4) and 6-O-10 (FIG. 5). The average of the final fluorescence values (mean±S.E.M.) of at least three experiments are shown in FIGS. 4 and 5 and are similarly plotted for 4-A-10 (FIG. 6), 5-A-10 (FIG. 7), 6-A-10 (FIG. 8), 4-O-10 (FIG. 9), 5-O-10 (FIG. 10), and 6-O-10 (FIG. 11). Experiments were performed in a NMDG-MeSO3 solution (100 mM NMDG, 10 mM HEPES, pH adjusted to 7.4 with methane sulfonic acid). The events are: t1, addition of dye; t2, addition of B. subtilis; t3, addition of a 2 M NMDG-Cl, 2 M NaCl or a 2 M KCl solution up to a final concentration of 60 mM; t4, addition of each MAcBCE or MAkBCE compound up to 2 μM. Experiments were repeated at least four times per condition and normalized relative to the fluorescence intensity just before the addition of cells.
The potentiometric dye DiSC3(5) was used to measure the ability of MAcBCE and MAkBCE compounds to catalyse ion-selective transport. DiSC3(5) undergoes membrane voltage-dependent partitioning between the intracellular and the extracellular medium. DiSC3(5) accumulates within a cell with a polarized membrane (negatively charged inside the cell) and is released when the cell membrane is depolarized (positively charged inside the cell). The membrane voltage in B. subtilis is roughly −120 mV, leading to DiSC3(5) accumulation in the bacteria (timepoint t2 in FIG. 4A-B). […]

Bacillus subtilis [3] = test: Toxicity (MIC) of MAcBCE and MAkBCE compounds on B. subtilis; assay type: cell-based; conditions: B. subtilis 168 WT with pRB374, 12 h, up to 400 μM
Experimental: XL1 blue strain Escherichia coli cells transformed with pET28a plasmid containing a kanamycin resistance gene, were grown at 37° C. in 2 mL of LB medium (Miller's LB broth, Research Products International) supplemented with 50 μg/mL of kanamycin, until the optical density (OD600) reached 0.6. The starting density of bacteria in the remainder of the experiments was a 1/100 dilution of this bacterial density, which was split into 4 mL cultures. A series of 400, 100, 10 and 5 mM stock solutions of each monoacylated benzo(crown-ether) (MAcBCE) and monoalkylated benzo(crown-ether) (MAkBCE) compounds in trifluoroethanol (TFE) were diluted by addition to the 4 mL cultures to reach final concentrations of 400, 200, 100, 50, 20, 15, 10, 5, 4, 3, 2 and 1 μM. The final TFE concentration was never higher than 0.1% v/v. Negative controls in the presence of TFE 0.1% v/v or in the absence of any treatment for each batch gave similar bacterial growth. The cultures were incubated at 37° C. with agitation for 12 h. Bacillus subtilis (168 WT) toxicity tests were carried out using an identical protocol, except they were transformed with the shuttle plasmid pRB374 in the presence of 5 μg/mL of kanamycin. […] Each compound was assayed a minimum of three times at each tested concentration.
The cytotoxicity of MABCE compounds was determined by measuring the MIC in liquid cultures of either the gram-negative bacteria Escherichia coli or the gram-positive bacteria Bacillus subtilis. […] As some curves overlap, portions of them are hidden. Values of MIC of 400 μM indicate that the value was either 400 μM, or it was higher and then was not determined. Each compound was assayed a minimum of three times at each different concentration. MICs for 5-A-4, 5-A-11, 6-A-11 and 6-O-11 could not be determined because the compounds were not soluble in TFE. While E. coli was not susceptible to any of the tested compounds at concentrations as high as 400 μM (data not shown), B. subtilis was susceptible to MABCE compounds bearing 15-crown-5 and 18-crown-6 scaffolds, but not to compounds containing a 12-crown-4 scaffold, as shown in FIG. 1.

[4] = Planar lipid bilayer ion channel recordings; assay type: biochemical; conditions: 2 μM; bilayer clamped at 100 mV; 150 mM KCl, 10 mM HEPES, pH 7.4
Experimental: Experiments in planar lipid bilayers were performed via a Nanion Orbit-mini planar bilayer system. The planar membranes were formed by painting a 25 mg/mL solution of lipids in n-nonane over the four 50 μm apertures on the chip. The lipids used were asolectin from soybean (Sigma-Aldrich) or a 3:1 w/w mix of 1-palmitoyl-2-oleoyl-sn-glycero-3-phosphoethanolamine (POPE) and 1-palmitoyl-2-oleoyl-sn-glycero-3-phospho-(1′-rac-glycerol) (POPG) (Avanti Polar lipids). The solutions tested were KCl solution (150 mM KCl, 10 mM HEPES, pH adjusted to 7.4 with KOH), NaCl solution (150 mM NaCl, 10 mM HEPES, pH adjusted to 7.4 with NaOH), and a concentrated KCl solution (500 mM KCl, 10 mM HEPES, pH adjusted to 7.4 with KOH). When the appropriate membrane formed, the voltage was clamped at 100 mV or −100 mV, and a stock solution of gramicidin D (Sigma-Aldrich) in DMSO or LEC10 in TFE were added up to the desired concentration. The tested concentration of gramicidin D was 1 nM and 2, 10, 100 and 200 μM were tested for LEC10. Two different temperatures were tested for each condition: 25 and 37° C. The current was recorded over 10 min for the gramicidin test and up to 1 h for the LEC10 test. The data was analyzed with Clampfit 10.7 software (Axon Instruments).
FIGS. 41 and 42 show the lipid bilayer recordings. Current through the asolectin planar lipid bilayer clamped at 100 mV was recorded in the presence of […] (FIG. 41) and 2 μM LEC10 (FIG. 42). In both cases, the solution was 150 mM KCl, 10 mM HEPES, pH 7.4. […] This lack of unitary channel formation, or even a carrier-like increase of the conductance, precludes an ionophore-like mechanism of ion transport.

| Compound | solubility in TFE [1] | toxicity / susceptibility of B. subtilis (MIC, FIG. 1) (Bacillus subtilis [3]) | other results |
| --- | --- | --- | --- |
| CCCCCCCCCCC(=O)c1ccc2c(c1)OCCOCCOCCOCCOCCO2 [Compound 6-O-11, 1-(2,3,5,6,8,9,11,12,14,15-decahydrobenzo[b][1,4,7,10,13,16]hexaoxacyclooctadecin-18-yl)undecan-1-one] | not soluble | – | – |
| CCCCCCCCCCCCCN1CCOCCOCCN(CCCCCCCCCCCCC)CCOCCOCC1 [LEC13, Ditridecyl diaza(18-crown-6)] | – | – | MIC (Bacillus subtilis [2]): > 400 µM |
| CCCCCCCCCCCc1ccc2c(c1)OCCOCCOCCOCCOCCO2 [Compound 6-A-11, 18-undecyl-2,3,5,6,8,9,11,12,14,15-decahydrobenzo[b][1,4,7,10,13,16]hexaoxacyclooctade-cine] | not soluble | – | – |
| CCCCCCCCCCCc1ccc2c(c1)OCCOCCOCCOCCO2 [Compound 5-A-11, 15-undecyl-2,3,5,6,8,9,11,12-octahydrobenzo[b][1,4,7,10,13]pentaoxacyclopentadecine] | not soluble | – | – |
| CCCCCCCCCC(=O)c1ccc2c(c1)OCCOCCOCCOCCO2 [Compound 5-O-10, 1-(2,3,5,6,8,9,11,12-octahydrobenzo[b][1,4,7,10,13]pentaoxacyclopentadecin-15-yl)decan-1-one] | – | most toxic | kinetics of the depolarization, ion dependence (B. subtilis membranes): fastest in presence of K^+ followed by Na^+ and then NMDG^+ |
| CCCCCCCCCCCCN1CCOCCOCCN(CCCCCCCCCCCC)CCOCCOCC1 [LEC12, Didodecyl diaza(18-crown-6)] | – | – | MIC (Bacillus subtilis [2]): 2 µM (≈ 1.2 µg/mL) |
| CCCCCCCCCCCN1CCOCCOCCN(CCCCCCCCCCC)CCOCCOCC1 [LEC11, Diundecyl diaza(18-crown-6)] | – | – | MIC (Bacillus subtilis [2]): 2 µM (≈ 1.14 µg/mL) |
| CCCCCCCCCC(=O)c1ccc2c(c1)OCCOCCOCCO2 [Compound 4-O-10, 1-(2,3,5,6,8,9-hexahydrobenzo[b][1,4,7,10]tetraoxacyclododecin-12-yl)decan-1-one] | – | non-toxic | change in DiSC3(5) fluorescence (membrane depolarization) (B. subtilis membranes): negligible |
| CCCCCCCCCCc1ccc2c(c1)OCCOCCOCCOCCO2 [Compound 5-A-10, 15-decyl-2,3,5,6,8,9,11,12-octahydrobenzo[b][1,4,7,10,13]pentaoxacyclopentadecine] | – | most toxic | kinetics of the depolarization, ion dependence (B. subtilis membranes): fastest in presence of K^+ followed by Na^+ and then NMDG^+ |
| CCCCc1ccc2c(c1)OCCOCCOCCOCCO2 [Compound 5-A-4, 15-butyl-2,3,5,6,8,9,11,12-octahydrobenzo[b][1,4,7,10,13]pentaoxacyclopentadecine] | not soluble | – | – |
| gramicidin D | – | – | ion channel activity [4]: unitary channels |
| CCCCCCCCCCc1ccc2c(c1)OCCOCCOCCO2 [Compound 4-A-10, 12-decyl-2,3,5,6,8,9-hexahydrobenzo[b][1,4,7,10]tetraoxacyclododecine] | – | non-toxic | change in DiSC3(5) fluorescence (membrane depolarization) (B. subtilis membranes): negligible |
